These are literature values, as cited in patent US20230405034A1, “FORMULATION OF IVERMECTIN IN SOFT GELATIN CAPSULES” (PROCAPS S.A., priority 2020, published 2023).

The test system of one series is SARS-CoV-2. The following applies: SARS-CoV-2 in vitro, after 48 hours; cited from earlier work.
Series [1] deals with pseudorabies DNA virus (PRV). To be noted: ivermectin treatment; cited from earlier work.
The conditions of series [2]: cited from earlier work.
For series [3] the following is noted: in vivo; cited from earlier work.

For Ivermectin, the “reduction in viral RNA” value in the series with SARS-CoV-2 is reported as “approximately 5,000 fold”. Also, the “survival in PRV-infected mice” value in series [1] is recorded as “increases survival”. Moreover, the solubility in water result in series [2] is listed as “practically insoluble in water”.
For the substance medium chain triglycerides, the plasma half-life result in series [3] is “approximately 17 minutes”.
